In patent publication US20250179028A1, “ACRYLAMIDE COMPOUNDS” (NRG THERAPEUTICS LTD, priority 2022, published 2025):
In brackets after ≈: the same amount, converted by molar mass. Like-named read-outs stand apart in the source and are kept apart here.

Columns and labels:
[1] = test system: mPTP; test: mPTP activity (Ca2+ retention) assay in isolated rat liver mitochondria; type: biochemical; conditions: for mPTP Rat liver pIC50: isolated rat liver mitochondria, average value from multiple experiments (n ≥ 2)
Text: Pharmacological inhibition or modulation of the mPTP can be measured in well characterised ‘Ca^2+ retention’ assays performed in isolated mitochondria. In vitro isolated mitochondria rapidly sequester exogenous Ca^2+ until the intramitochondrial Ca^2+ concentration reaches the threshold for mPTP activation. Once the pore is activated, mitochondrial integrity is compromised and the stored Ca^2+ is released. The distribution of Ca^2+ between extra- and intra-mitochondrial compartments can be measured in real time with the use of membrane-impermeant Ca^2+ sensitive fluorescent dyes. Depending on the configuration of the assay, inhibition or modulation of the mPTP either delays the opening of the pore or increases the concentration of Ca^2+ required to induce mPTP opening.
MPTP activity was measured in mitochondria freshly isolated from female Sprague Dawley (250 to 300 gram) rat livers using the following method. Cervical dislocation was performed on the rat. The liver was then perfused in-situ with ˜40 ml cold Dulbecco's Phosphate Buffered Saline (DPBS) prior to dissection and transferred into 30 ml Isolation Buffer (250 mM Sucrose, 10 mM KCl, 1 mM EGTA, 1 mM EDTA, 25 mM HEPES, adjusted to pH 7.5 with 1 M NaOH). Each lobe of the liver was then removed from the buffer, minced using tweezers and a scalpel into ˜5 mm pieces then transferred into a 50 ml Potterton dounce homogenization tube on ice containing 30 ml ice-cold centrifugation buffer (300 mM Trehalose, 25 mM HEPES, 1 mM EGTA, 1 mM EDTA, 10 mM KCl, adjusted to pH 7.5 with 1 M NaOH and supplemented with 0.1% bovine serum albumin (BSA) and complete protease inhibitor cocktail (one tablet of inhibitor per 50 mls of buffer). Homogenisation was carried out using a teflon pestle at 1800 rpm. The slurry was centrifuged at 800 g for 10 min at 4° C., then the supernatant centrifuged at 10,000 g for 10 min. The pellet was washed once with FLIPR assay buffer (75 mM Mannitol, 25 mM Sucrose, 5 mM Potassium Phosphate Monobasic, 20 mM Tris base, 100 mM KCl, 0.1% BSA adjusted to pH 7.4 with 5M HCl) centrifuged again, then resuspended in FLIPR assay buffer to a concentration of 8.8 mg/ml protein.
Tested compounds (10 mM stock in DMSO) were serially diluted in DMSO in half log steps to generate 10 test concentrations (final concentrations in assay 30 μM to 1 nM). An intermediate dilution of 5 μl DMSO samples into 247 μl FLIPR assay buffer was carried out prior to transfer of 5 μl into duplicate wells of a 384 well polypropylene assay plate. Control wells were 0.5% (v/v) DMSO and 5 μM cyclosporin A.
A stock mitochondria/Fluo5N assay solution was prepared in 5.6 ml FLIPR assay buffer (at RT) supplemented with succinate disodium salt (10 mM), rotenone (1 μM), Fluo5N pentapotassium salt (2 μM) and 1 ml mitochondria suspension, then transferred (15 μl) into the assay plate containing test compounds and incubated for 10 min at RT. Assay plates were then transferred to a FLIPR Tetra plate reader (Molecular Devices). Dye fluorescence was then measured every 3 sec for a total of 10 min. After 12 sec, a 2.5 μl bolus of CaCl2 (75 μM) was added from a source plate containing 675 μM CaCl2 in FLIPR assay buffer. IC50 values for tested compounds were calculated using the fluorescence value collected at the 10 min timepoint with % inhibition calculated using the DMSO control and cyclosporin A values as […] respectively.

[2] = biological target: CYP2D6 (Homo sapiens (Human), UniProt P10635); test: Cytochrome P450 CYP2D6 inhibition in human liver microsomes; type: in vitro ADME; conditions: human liver microsomes, average value from two experiments; for inhibition at 20 min, 1 µM: probe dextromethorphan 2 µM (dextrorphan formation), 1 uM test compound, negative values = no effective inhibition
Method: Studies to assess tested compound mediated inhibition of cytochrome P450 enzyme isoform CYP2D6 were performed using human liver microsomes (BD Gentest) using either a single concentration (1 μM) of test compound or concentration response (0.1, 0.3, 1, 3, 10 and 30 μM) to derive an IC50. Tested compound solutions were prepared from 10 mM stocks in DMSO and diluted to 200 μM in DMSO. Reactions were prepared in a 96 deep well plate by combining 1 μl test compound with 179 μl reaction mixture (100 mM phosphate buffered saline (PBS), 0.2 mg/mL microsomes and 2 μM Dextromethorphan prepared from stocks as detailed below).
The positive control inhibitor, quinidine, was used at a final concentration of 0.5 μM when used at a single concentration. The final concentrations of quinidine used to derive an IC50 were 0, 0.1, 0.3, 1, 3, 10 and 30 μM. Plates were warmed at 37° C. for 15 min before starting reactions with 20 μl 10 mM NADPH solution in PBS and incubated for 20 min at 37° C. The assay is performed in duplicate. Reactions were quenched with 200 μl cold acetonitrile containing internal standards (200 nM labetalol, 200 nM alprazolam and 100 nM tolbutamide). The plate was centrifuged at 4000 rpm for 30 minutes, placed on ice for 20 minutes and then centrifuged at 4000 rpm for 30 minutes again to precipitate protein. 100 μL of the supernatant was transferred to a new plate and diluted with 100 μL pure water before being analysed using UPLC/MS/MS. The products of the transformation for dextromethorphan to dextrorphan was monitored by UPLC-MS/MS. The inhibition of CYP2D6 in human liver microsomes was measured as the percentage decrease in the activity of dextrorphan formation compared to non-inhibited controls (=100% activity). The IC50 value was calculated (test compound concentration which produces 50% inhibition) by using Excel Xlfit.

[3] = Hepatocyte clearance assay, rat; type: in vitro ADME; conditions: average value from two experiments, read-out: Rat heps Clint
Method: (§1) In vitro clearance studies were performed in primary rat and human hepatocytes (BiolVT). Vials of cryopreserved rat or human hepatocytes were thawed in a 37° C. water bath for 2 min. Cells were transferred into thawing medium (Williams' Medium E containing 30% Percoll, 1×GlutaMAX-1, 15 mM HEPES, 5% fetal bovine serum (FBS), 4 μg/ml insulin, 1 μM dexamethasone), centrifuged at 100 g for 10 min then resuspended in culture medium (Leibovitz's L-15 Medium) at a concentration of 0.5×10^6 viable cells/mL (number of viable cells assessed using AO/PI staining). Hepatocytes (198 μL) were transferred into wells of a 96-well non-coated plate and placed in a 37° C. incubator for 10 min. Test compound solutions were prepared from 10 mM stocks in DMSO, diluted to 100 μM in 50% (v/v in water) acetonitrile. Test compound samples (2 μl) were added to each well of hepatocytes and incubated at 37° C. Samples (25 μl) were collected at t=0, 15, 30, […] and 120 min, mixed with 6 volumes (150 μl) of acetonitrile containing internal standard (100 nM alprazolam, 200 nM caffeine and 100 nM tolbutamide), vortexed for 5 min and centrifuged for 45 min at 3220 g. An aliquot of supernatant (100 μL) was diluted with 100 μL ultra-pure water, and the mixture was used for LC/MS/MS analysis. All incubations were performed in duplicate. Peak areas were determined from extracted ion chromatograms. The slope value, k, was determined by linear regression of the natural logarithm of the remaining percentage of the parent drug vs. incubation time curve. The in vitro half-life (in vitro t½) was determined from the slope value: in vitro t½=0.693/k. Conversion of the in vitro t½ (in min) into the in vitro intrinsic clearance (in vitro CLint, in μL/min/1×10^6 cells) was done using the following equation (mean of duplicate determinations):
(§2) [formula] • V=incubation volume (0.2 mL) • N=number of hepatocytes per well (0.1×10^6 cells).

[4] = PBS and FaSSIF solubility; type: physicochemical; conditions: kinetic from dmso stock
Method: Test compounds were prepared as 10 mM stocks in DMSO and 15 μl samples transferred in duplicate into 1.5 mL glass flat bottom vials (BioTech Solutions). Fasted state simulated intestinal fluid (FaSSIF) or PBS (pH 7.4) was added to each vial to final volume of 500 μl. One PTFE encapsulated stir stick (V&P Scientific) was placed in each vial before sealing with PTFE/SIL plugs (BioTech Solutions). Vials were shaken at 1100 rpm for 2 hr at 25° C. Samples were then filtered through MultiScreen Solvinert filter plates (Millipore) via vacuum filtration. Aliquots of filtrate (5 μl) plus 5 μl DMSO were diluted in 490 μl 50% acetonitrile in water containing internal standard. The filtrate was analysed and quantified against a standard of known concentration using LC-MS/MS. Solubility values of the test compound and control compound were calculated as follows: […]

[5] = Hepatocyte clearance assay, human; type: in vitro ADME; conditions: average value from two experiments, read-out: Human heps Clint
Method: as §1, §2

[6] = cryopreserved primary rat hepatocytes
[7] = aqueous buffer, PBS pH 7.4, 2 hr at 25° C., read-out: Solubility PBS (pH 7.4)
[8] = fasted state simulated intestinal fluid (FaSSIF), fassif, Fasted state simulated intestinal fluid, 2 hr at 25° C., read-out: Solubility FaSSIF
[9] = cryopreserved primary human hepatocytes
[10] = cryopreserved primary hepatocytes

Sequence of CYP2D6 (P10635 whole entry, canonical isoform): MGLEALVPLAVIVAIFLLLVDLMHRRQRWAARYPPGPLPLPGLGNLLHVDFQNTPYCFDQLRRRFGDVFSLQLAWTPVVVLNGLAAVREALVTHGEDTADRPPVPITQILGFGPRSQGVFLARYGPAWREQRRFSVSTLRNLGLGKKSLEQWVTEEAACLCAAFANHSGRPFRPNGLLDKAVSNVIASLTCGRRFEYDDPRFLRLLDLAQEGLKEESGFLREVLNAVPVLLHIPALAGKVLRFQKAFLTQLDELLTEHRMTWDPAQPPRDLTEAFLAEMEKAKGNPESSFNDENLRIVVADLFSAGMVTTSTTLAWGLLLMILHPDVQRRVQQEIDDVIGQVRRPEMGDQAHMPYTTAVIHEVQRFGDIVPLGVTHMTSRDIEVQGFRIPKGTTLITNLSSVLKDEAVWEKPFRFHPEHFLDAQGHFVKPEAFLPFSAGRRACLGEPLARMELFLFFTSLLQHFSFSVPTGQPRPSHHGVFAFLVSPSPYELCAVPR

Row | SMILES | mPTP Rat liver pIC50 [1] | inhibition at 20 min, 1 µM [2] | hepatocyte CLint at 1 µM [3, 6] | solubility at 2 h [4, 7] | solubility at 2 h [4, 8] | hepatocyte CLint at 1 µM [5, 9] | hepatocyte CLint at 1 µM [3, 10] | hepatocyte CLint at 1 µM [5, 10] | IC50 [2] | activity in the rat liver mitochondria assay (in words) [1]
1 | Cc1cccc(C)c1NC(=O)/C=C/c1ccc2c(c1)[nH]c(=O)n2C [Example 29, (E)-N-(2,6-dimethylphenyl)-3-(1-methyl-2-oxo-2,3-dihydro-1H-benzo[d]imidazol-5-yl)acrylamide] | 6.9 | -3.03% | 16.1 µL/min/1e6 cells | 33.5 µM (≈ 10.8 µg/mL) | 69.8 µM (≈ 22.4 µg/mL) | – | – | – | – | –
2 | Cc1c(F)cccc1NC(=O)/C=C/c1ccc2c(C)n[nH]c2c1 [Example 37, (E)-N-(3-fluoro-2-methylphenyl)-3-(3-methyl-1H-indazol-6-yl)acrylamide] | 8.1 | 5.04% | 87.6 µL/min/1e6 cells | – | 2.95 µM (≈ 0.913 µg/mL) | 18.9 µL/min/1e6 cells | – | – | – | highest activity
3 | COCc1c(F)cncc1NC(=O)/C=C/c1ccc2c(C)n[nH]c2c1 [Example 114, (2E)-N-[5-fluoro-4-(methoxymethyl)pyridin-3-yl]-3-(3-methyl-1H-indazol-6-yl)prop-2-enamide] | – | – | – | – | 19 µM (≈ 6.47 µg/mL) | – | 76 µL/min/1e6 cells | 3 µL/min/1e6 cells | – | –
4 | N#Cc1n[nH]c2cc(/C=C/C(=O)NC3CCc4ccccc43)ccc12 (stereo not shown) [Example 26, (E)-3-(3-cyano-1H-indazol-6-yl)-N-(2,3-dihydro-1H-inden-1-yl)acrylamide] | 7.2 | 3.49% | 87.5 µL/min/1e6 cells | – | – | – | – | – | 8.8 µM | –
5 | CO[C@H]1Cc2ccccc2[C@@H]1NC(=O)/C=C/c1ccc2c(Cl)n[nH]c2c1 [Example 72, (E)-3-(3-chloro-1H-indazol-6-yl)-N-((1S,2S)-2-methoxy-2,3-dihydro-1H-inden-1-yl)acrylamide] | – | 9.98% | – | – | 24.4 µM (≈ 8.98 µg/mL) | – | 77 µL/min/1e6 cells | 11.3 µL/min/1e6 cells | – | –
6 | COCc1c(F)cccc1NC(=O)/C=C/c1ccc2c(C)n[nH]c2c1 [Example 50, (E)-N-(3-fluoro-2-(methoxymethyl)phenyl)-3-(3-methyl-1H-indazol-6-yl)acrylamide] | 7.3 | 1.3% | 47.8 µL/min/1e6 cells | – | 23.7 µM (≈ 8.04 µg/mL) | 15.6 µL/min/1e6 cells | – | – | – | –
7 | O=C(/C=C/c1cc2[nH]nnc2cc1F)NC1CCc2ccccc21 (stereo not shown) [Example 27, (E)-N-(2,3-dihydro-1H-inden-1-yl)-3-(5-fluoro-1H-benzo[d][1,2,3]triazol-6-yl) acrylamide] | – | 14.3% | – | – | 43.1 µM (≈ 13.9 µg/mL) | – | – | 9.6 µL/min/1e6 cells | – | –
8 | COc1n[nH]c2cc(/C=C/C(=O)N[C@H]3c4ccccc4C[C@@H]3OC)ccc12 [Example 71, (E)-3-(3-methoxy-1H-indazol-6-yl)-N-((1S,2S)-2-methoxy-2,3-dihydro-1H inden-1-yl)acrylamide] | 7.0 | 7.4% | 72 µL/min/1e6 cells | – | 19.9 µM (≈ 7.25 µg/mL) | 8.9 µL/min/1e6 cells | – | – | – | –

Continued, in another order:

Row | mPTP Rat liver pIC50 [1] | inhibition at 20 min, 1 µM [2] | hepatocyte CLint at 1 µM [3, 6] | solubility at 2 h [4, 7] | solubility at 2 h [4, 8] | hepatocyte CLint at 1 µM [5, 9] | hepatocyte CLint at 1 µM [3, 10] | hepatocyte CLint at 1 µM [5, 10] | IC50 [2] | SMILES | activity in the rat liver mitochondria assay (in words) [1]
9 | 6.8 | -1.76% | 11.9 µL/min/1e6 cells | – | 210 µM (≈ 68.3 µg/mL) | 6.08 µL/min/1e6 cells | – | – | – | Cc1ccc(F)c(C)c1NC(=O)/C=C/c1ccc2c(c1)NC(=O)C2 [Example 20, (E)-N-(3-fluoro-2,6-dimethylphenyl)-3-(2-oxoindolin-6-yl)acrylamide] | –
10 | 7.2 | -2.57% | 9.41 µL/min/1e6 cells | 65.9 µM (≈ 22.6 µg/mL) | – | 7.26 µL/min/1e6 cells | – | – | – | Cc1cc(F)c(F)c(C)c1NC(=O)/C=C/c1ccc2c(c1)NC(=O)C2 [Example 36, (E)-N-(3,4-difluoro-2,6-dimethylphenyl)-3-(2-oxoindolin-6-yl)acrylamide] | –
11 | 7.2 | 2.83% | – | – | 258 µM (≈ 88.4 µg/mL) | 8.33 µL/min/1e6 cells | – | – | – | Cc1c(F)cc(F)c(C)c1NC(=O)/C=C/c1ccc2c(c1)NC(=O)C2 [Example 35, (E)-N-(3,5-difluoro-2,6-dimethylphenyl)-3-(2-oxoindolin-6-yl)acrylamide] | –
